# US12534469B2 (CHILDREN'S HOSPITAL MEDICAL CENTER, priority 2020, dated 2026)
# Assays:
# IRAK1 = molecular target: T1, IRAK1 (Homo sapiens, UniProt P51617); experiment: RBC HotSpot Kinase Assay, IRAK1; format: biochemical
# T1 construct: purchased Reaction Biology (RBC HotSpot Kinase Assay)
# Outline: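 Radiometric filter-binding (HotSpot) activity assay on isolated recombinant kinase, possibly truncated or catalytic domain only, in 20 mM Hepes pH 7.5, 10 mM MgCl2, 1 mM EGTA, 2 mM DTT, 1% DMSO. Compound preincubated 20 min with kinase and substrate, then ^33P-ATP added. Reaction 2 h at room temperature, read by P81 filter binding.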
# IRAK4 = molecular target: T2, IRAK4 (Homo sapiens, UniProt Q9NWZ3); experiment: Reaction Biology NanoBRET target engagement assay, IRAK4; format: cell-based; conditions: transfected HEK-293 cells
# T2 sequence (Q9NWZ3 1-460): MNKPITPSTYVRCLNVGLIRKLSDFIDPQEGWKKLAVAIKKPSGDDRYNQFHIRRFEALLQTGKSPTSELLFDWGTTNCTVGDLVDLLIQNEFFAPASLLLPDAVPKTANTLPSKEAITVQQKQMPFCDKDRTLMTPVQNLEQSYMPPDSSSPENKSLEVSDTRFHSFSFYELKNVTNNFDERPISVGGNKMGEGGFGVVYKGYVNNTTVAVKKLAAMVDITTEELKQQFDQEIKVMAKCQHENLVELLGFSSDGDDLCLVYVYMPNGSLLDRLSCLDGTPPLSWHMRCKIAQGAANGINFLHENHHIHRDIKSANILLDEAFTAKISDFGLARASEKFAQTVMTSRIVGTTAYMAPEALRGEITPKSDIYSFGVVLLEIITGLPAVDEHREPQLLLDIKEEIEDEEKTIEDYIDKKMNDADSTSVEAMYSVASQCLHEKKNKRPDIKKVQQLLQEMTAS
# Excerpt: The NanoBRET assay measures kinase engagement in real time in the context of the intact cell. Unlike the previously described biochemical kinase assay methodologies in Examples 26-27, the NanoBRET assay measures the binding and activity characteristics under equilibrium conditions using full-length kinases in the presence of cellular concentrations of ATP in live, uncompromised cells. As such, the assay provides a more relevant assessment of kinase potency and selectivity that would be expected to be observed in the native cellular environment, where potency is often considerably lower than that observed in the isolated biochemical assays (Vasta, J. D. et al., (2018) Cell Chem. Biol. 25, 206-214). The assay uses a Kinase-NanoLuc® fusion vector expressing a kinase protein to which a luciferase tag has been added, a cell-permeant fluorescent NanoBRET™ tracer, a NanoLuc® substrate, and an extracellular NanoLuc® inhibitor. Upon expression of the luciferase-tagged kinase, cells will produce a strong BRET signal only in the presence of the NanoBRET™ tracer. The extracellular NanoLuc® inhibitor ensures that the BRET signal observed emanates only from live cells. Because the BRET signal has tight distance constraints, addition of the test compound will decrease the BRET signal if the compound competes with the NanoBRET™ tracer for binding to the kinase domain. Under the appropriate tracer conditions established by the manufacturer, quantitative intracellular affinity and relative potency can then be determined using Mass Action model equations.
# HEK-293 cells were purchased from ATCC. FuGENEHD Transfection Reagent, Kinase-NanoLucfusion plasmids, Transfection Carrier DNA, NanoBRETTracers and dilution buffer, NanoBRETNano-Glo Substrate, Extracellular NanoLucInhibitor were obtained from Promega.
# Assays were conducted following Promega assay protocol with some modifications. HEK-293 Cells were transiently transfected with Kinase-NanoLucFusion Vector DNA by FuGENEHD Transfection Reagent. Testing compounds were delivered into 384 well assay plate by Echo 550 (LabcyteInc, Sunnyvale, CA). Transfected cells were harvested and mixed with NanoBRETTracer Reagent and dispensed into 384 well plates and incubated at 37° C. in 5% CO2 cell culture incubator for 1 hour. The NanoBRETNano-Glo Substrate plus Extracellular NanoLucInhibitor Solution were added into the wells of the assay plate and incubated for 2-3 minutes at room temperature. The donor emission wavelength (460 nm) and acceptor emission wavelength (600 nm) were measured in the EnVisionplate reader. The BRET Ratios were calculated. BRET Ratio=[(Acceptor sample÷Donor sample)−(Acceptor no-tracer control÷Donor no-tracer control)]. The IC50 values of compounds were calculated with Prism GraphPad program.
# • 1). Cultivate HEK-293 cells (70-80% confluence) appropriately prior to assay. Trypsinize and collect HEK-293 cells. • 2). Prepare lipid: DNA complexes as follows: • a. Prepare a 10 μg/ml solution of DNA in Opti-MEM without serum that consists of the following ratios of carrier DNA and DNA encoding NanoLuc® fusion. 9.0 μg/mL of Transfection Carrier DNA, 1.0 μg/mL of NanoLuc fusion vector DNA and 1 mL of Opti-MEM without phenol red. Mix thoroughly. • b. Add 30 μl of FuGENE HD Transfection Reagent into each milliliter of DNA mixture to form lipid:DNA complex. • c. Mix by inversion 10 times. • d. Incubate at ambient temperature for 20 minutes to allow complexes to form. • 3). In a sterile, conical tube, mix 1 part of lipid:DNA complex with 20 parts of HEK-293 cells in suspension. Mix gently by inversion 5 times. • 4). Dispense cells+lipid:DNA complex into a sterile tissue culture dish and incubate for 22-24 hours. 2. Addition of Test Compounds (Dry Plate Shooting)
# Each test compound is delivered from the compound source plate to the wells of 384-well white NBS plate by Echo 550.
# • 1). […]
# T1 sequence (P51617 whole entry): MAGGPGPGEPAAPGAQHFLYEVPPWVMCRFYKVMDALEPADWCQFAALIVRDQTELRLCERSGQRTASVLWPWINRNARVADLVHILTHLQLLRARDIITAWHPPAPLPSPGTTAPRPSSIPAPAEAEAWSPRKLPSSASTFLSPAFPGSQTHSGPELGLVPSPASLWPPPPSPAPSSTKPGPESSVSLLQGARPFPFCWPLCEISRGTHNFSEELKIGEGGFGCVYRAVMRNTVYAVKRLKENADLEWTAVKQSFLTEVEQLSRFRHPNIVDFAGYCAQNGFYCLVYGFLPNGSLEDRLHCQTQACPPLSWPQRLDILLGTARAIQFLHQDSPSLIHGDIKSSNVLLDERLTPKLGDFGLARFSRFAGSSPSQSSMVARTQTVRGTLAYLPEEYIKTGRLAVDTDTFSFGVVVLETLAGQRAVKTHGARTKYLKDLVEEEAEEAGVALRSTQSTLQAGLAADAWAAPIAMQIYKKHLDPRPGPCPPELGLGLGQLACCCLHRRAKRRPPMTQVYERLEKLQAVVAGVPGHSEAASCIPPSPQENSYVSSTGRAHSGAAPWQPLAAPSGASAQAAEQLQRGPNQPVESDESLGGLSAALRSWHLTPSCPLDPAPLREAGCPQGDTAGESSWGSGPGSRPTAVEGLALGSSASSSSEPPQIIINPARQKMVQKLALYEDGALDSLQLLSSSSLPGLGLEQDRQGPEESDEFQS
IC50 (IRAK1) [nM],IC50 (IRAK4) [nM],SMILES
3320,98,"COc1cc2ncc(-c3cccc(N[C@H]4CNC[C@@H]4F)n3)n2nc1C(C)(O)C(F)(F)F (single isomer, unassigned; fast-eluting) [Compound 133]"
81,54,"F[C@H]1CNC[C@@H]1Nc1cccc(-c2cnc3ccc(-c4cnn5ccccc45)nn23)n1 [Compound 9, N-((3S,4S)-4-fluoropyrrolidin-3-yl)-6-(6-(pyrazolo[1,5-a]pyridin-3-yl)imidazo[1,2-b]pyridazin-3-yl)pyridin-2-amine]"
194,511,"c1cc(N[C@@H]2CCCNC2)nc(-c2cnc3ccc(-c4cnn5ccccc45)nn23)c1 [Compound 19, (R)-N-(piperidin-3-yl)-6-(6-(pyrazolo[1,5-a]pyridin-3-yl)imidazo[1,2-b]pyridazin-3-yl)pyridin-2-amine]"
153,2,"COc1cc2ncc(-c3cccc(N[C@H]4CNC[C@@H]4F)n3)n2nc1C1CC1 [Compound 96, 6-(6-cyclopropyl-7-methoxyimidazo[1,2-b]pyridazin-3-yl)-N-((3S,4S)-4-fluoropyrrolidin-3-yl)pyridin-2-amine]"
253,,"COc1cc2ncc(-c3cccc(N[C@@H]4CCNC4)n3)n2nc1C1CC1 [Compound 97, (R)-6-(6-cyclopropyl-7-methoxyimidazo[1,2-b]pyridazin-3-yl)-N-(pyrrolidin-3-yl)pyridin-2-amine]"
821,3,"COc1cc2ncc(-c3cccc(N[C@H]4CNC[C@@H]4C(F)(F)F)n3)n2nc1C1CC1 [Compound 99, 6-(6-cyclopropyl-7-methoxyimidazo[1,2-b]pyridazin-3-yl)-N-((3R,4S)-4-(trifluoromethyl)pyrrolidin-3-yl)pyridin-2-amine]"
109,2,"COc1cc2ncc(-c3cccc(N[C@H]4CNCC[C@@H]4F)n3)n2nc1C1CC1 [Compound 102, 6-(6-cyclopropyl-7-methoxyimidazo[1,2-b]pyridazin-3-yl)-N-((3S,4S)-4-fluoropiperidin-3-yl)pyridin-2-amine]"
15,< 0.5,"COc1cc2ncc(-c3nc(N[C@@H]4CCCNC4)c(F)cc3F)n2nc1C1CC1 [Compound 106, (R)-6-(6-cyclopropyl-7-methoxyimidazo[1,2-b]pyridazin-3-yl)-3,5-difluoro-N-(piperidin-3-yl)pyridin-2-amine]"
3,< 0.5,"COc1cc2ncc(-c3nc(N[C@H]4CNC[C@@H]4F)c(F)cc3F)n2nc1C1CC1 [Compound 107, 6-(6-cyclopropyl-7-methoxyimidazo[1,2-b]pyridazin-3-yl)-3,5-difluoro-N-((3S,4S)-4-fluoropyrrolidin-3-yl)pyridin-2-amine]"
5,< 0.5,"COc1cc2ncc(-c3nc(N[C@H]4CNCC[C@@H]4F)c(F)cc3F)n2nc1C1CC1 [Compound 108, 6-(6-cyclopropyl-7-methoxyimidazo[1,2-b]pyridazin-3-yl)-3,5-difluoro-N-((3S,4S)-4-fluoropiperidin-3-yl)pyridin-2-amine]"
135,7,"COc1cc2ncc(-c3nc(N[C@H]4CNC[C@@H]4F)c(F)cc3F)n2nc1C(C)(C)O [Compound 126, 2-(3-(3,5-difluoro-6-(((3S,4S)-4-fluoropyrrolidin-3-yl)amino)pyridin-2-yl)-7-methoxyimidazo[1,2-b]pyridazin-6-yl)propan-2-ol]"
146,30,"COc1cc2ncc(-c3nc(N[C@@H]4CCCNC4)c(F)cc3F)n2nc1C(C)(C)O [Compound 127, (R)-2-(3-(3,5-difluoro-6-(piperidin-3-ylamino)pyridin-2-yl)-7-methoxyimidazo[1,2-b]pyridazin-6-yl)propan-2-ol]"
129,15,"COc1cc2ncc(-c3nc(N[C@H]4CNCC[C@@H]4F)c(F)cc3F)n2nc1C(C)(C)O [Compound 128, 2-(3-(3,5-difluoro-6-(((3S,4S)-4-fluoropiperidin-3-yl)amino)pyridin-2-yl)-7-methoxyimidazo[1,2-b]pyridazin-6-yl)propan-2-ol]"
